Results published in US11407741B2, “Compounds and their use as selective inhibitors of caspase-2” (priority 2017, dated 2022).
Where a SMILES comes first, the peptide text is derived from it. [ ]: non-standard residue; d: D form. The star is where a group is joined. Pro(3S-CH2tBu) = CC(C)(C)C[C@H]1CCN[C@@H]1C(=O)O; Quinaldoyl = O=C(c1ccc2ccccc2n1)*; X1 = c1ncc(CO*)s1

Experiments:
Caspase-3 = target: T1, Caspase-3 (Homo sapiens, UniProt P42574); experiment: Caspase-3 inhibition assay for irreversible inhibitors (kinact/KI, continuous method); format: biochemical; conditions: human recombinant Caspase-3 0.5 nM, 37° C.
T1 construct: the Caspase-2 and Caspase-3 are human recombinant active enzymes; purchased R&D Systems 707-C3-010/CF
T1 sequence (P42574 29-175 limits assumed): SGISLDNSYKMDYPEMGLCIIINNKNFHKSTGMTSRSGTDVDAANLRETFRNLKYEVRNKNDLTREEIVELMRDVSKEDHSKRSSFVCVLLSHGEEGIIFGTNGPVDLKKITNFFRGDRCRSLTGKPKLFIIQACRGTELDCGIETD
T1 sequence (P42574 176-277 limits assumed): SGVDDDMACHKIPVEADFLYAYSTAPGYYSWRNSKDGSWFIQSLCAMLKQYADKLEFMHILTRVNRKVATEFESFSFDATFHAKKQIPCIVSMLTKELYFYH
Method: The efficiency of the comparative compound Δ2Me-TRP601, that is an already known group II Caspase inhibitor (inhibitor of Caspase-2, Caspase-3 and Caspase-7), has been assessed by a similar protocol described in Chauvier et al., 2011 Cell Death Dis 2011, 2:e203.
In this example, the Caspase-2 and Caspase-3 are human recombinant active enzymes that are respectively provided by Enzo Life® (ALX-201-057-U100) and R&D Systems® (707-C3-010/CF).
Caspase-2 is used at a final concentration of 0.1 nM in a “Caspase-2 buffer” containing 20 mM HEPES (pH 7.4), 5 mM DTT, 2 mM EDTA, 0.1% CHAPS and 800 mM succinate. […]
The peptide substrates used for the enzymatic activity measurements are Ac-DEVD-AMC and Ac-VDVAD-AMC commercialized by EnzoLife® (respectively referenced ALX-260-031-M005 and ALX-260-060-M005). […] The releasing of AMC enables to follow the enzymatic activity in fluorescence unit RFU over time in a 96-wells microplate.
The fluorescence values are measured at 37° C. with a spectrofluorometer with a microplate reader BMG FLUOstar OPTIMA. […]
The inhibitory properties of the tested compounds are evaluated by the determination of the kinact/KI ratio regarding either Caspase-2 or Caspase-3 wherein: • kinact is the maximal inactivation rate constant, and • KI is the dissociation constant according to: […]
The activities of the enzyme are measured between 45 and 60 minutes. […]

HeLa cells = experiment: Protection against vincristine-induced cell death, propidium iodide flow cytometry; format: cell-based, human; set-up: Index of cell death: key to the marks not given beside the values
Method: Human HeLa cells are used in this model. HeLa cells (cervical cancer cell line) were obtained from American Type Cell Collection (ATCC), and were cultured in Dulbecco's Modified Eagle Medium (DMEM, High Glucose, GlutaMAX™, Pyruvate) (Gibco, Life technologies), supplemented with 10% FCS and antibiotics (Gibco, Life technologies).
Human HeLa cells are treated with a solution of Vincristine (Sigma Aldrich) (diluted in water at 5 mM). Vincristine works partly by binding to the Tubulin protein, stopping the cell from separating its chromosomes during the metaphase; the cell then undergoes apoptosis through a caspase-dependent process.
Propidium iodide (PI) (Sigma Aldrich) is used to evaluate plasma membrane permeabilisation, a sign of cell death.
24 hours before pharmacological treatment, HeLa cells were plated into 24-well plates. […] Cells were exposed or not (control), to 20 nM Vincristine for 48 hours.
The content of each well is collected is added to PBS and then centrifuged (900 rpm; 5 min).
The pellet obtained is put into 300 μL of a medium comprising propidium iodide and incubated (37° C., 5% CO2) in the dark for 5 minutes and then subjected to flow cytometry analysis.
Fluorescence-Activated Cell Sorting was performed using a FACSCalibur cytometer (Becton Dickinson, San Jose, Calif.). For each sample, data from 5,000 Cells were registered and analyzed with the CellQuest Pro software (Becton Dickinson). Analysis included FSC (Forward Scatter/relating to the cells'size) and SSC (Side Scatter/relating to the cells' granularity) parameters together with FL-1 and FL-3 channel.
The percentage of propidium iodide positive cells gives an estimation of cell death.

SMILES	k3/KI Casp3 (Caspase-3)	Index of cell death (HeLa cells; 20 nM Vincristine for 48 hours, propidium iodide positive cells)	Protection against apoptotic death induced by vincristine (HeLa cells; compound added 1 hour before vincristine)
CC(C)[C@H](NC(=O)c1ccc2ccccc2n1)C(=O)N[C@@H](CC(=O)O)C(=O)N[C@H](C(=O)N1CC[C@H](CC(C)(C)C)[C@H]1C(=O)N[C@@H](CC(=O)O)C(=O)COc1c(F)cccc1F)C(C)C (single isomer, unassigned) [Compound 2 enantiomer a]	2 625 M^−1 · s^−1	–	–
CC(C)[C@H](NC(=O)c1ccc2ccccc2n1)C(=O)N[C@@H](CC(=O)O)C(=O)N[C@H](C(=O)N1CC[C@H](CC(C)(C)C)[C@H]1C(=O)N[C@@H](CC(=O)O)C(=O)OCc1cncs1)C(C)C [Compound 3, (S)-4-(((S)-1-((2S,3S)-2-(((S)-3-carboxy-1-oxo-1-(thiazol-5 - ylmethoxy)propan-2-yl)carbamoyl)-3-neopenthylpyrrolidin-1-yl)-3-methyl-1-oxobutan-2-yl)amino)-3-((S)-3-methyl-2-(quinoline-2-carboxamido)butanamido)-4-oxobutanoic acid] (Quinaldoyl-VDV[Pro(3S-CH2tBu)]D-X1)	–	++	protect the cells against apoptotic death induced by vincristine in a dose-dependent manner
